In patent publication US10550105B2 (Ribon Therapeutics Inc., priority 2018, dated 2020):
pIC50: −log10 of the molar value.

molecular target: PARP7 (Homo sapiens (Human), UniProt Q7Z3E1); test: Enzymatic assay for inhibition of PARP7: TR-FRET displacement of biotinylated Probe A from the TIPARP active site; assay type: binding; settings: Table A-1
How it was run: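 Compounds were tested as dose-response series, and reactions were incubated a further 30 min at 25° C. TR-FRET was read at 320 nm excitation with 615 and 665 nm emission after a 90 μs delay. The 665/615 ratio gave the TIPARP–Probe A complex, and % inhibition was fitted against concentration.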

Chain of PARP7 (Q7Z3E1 whole entry): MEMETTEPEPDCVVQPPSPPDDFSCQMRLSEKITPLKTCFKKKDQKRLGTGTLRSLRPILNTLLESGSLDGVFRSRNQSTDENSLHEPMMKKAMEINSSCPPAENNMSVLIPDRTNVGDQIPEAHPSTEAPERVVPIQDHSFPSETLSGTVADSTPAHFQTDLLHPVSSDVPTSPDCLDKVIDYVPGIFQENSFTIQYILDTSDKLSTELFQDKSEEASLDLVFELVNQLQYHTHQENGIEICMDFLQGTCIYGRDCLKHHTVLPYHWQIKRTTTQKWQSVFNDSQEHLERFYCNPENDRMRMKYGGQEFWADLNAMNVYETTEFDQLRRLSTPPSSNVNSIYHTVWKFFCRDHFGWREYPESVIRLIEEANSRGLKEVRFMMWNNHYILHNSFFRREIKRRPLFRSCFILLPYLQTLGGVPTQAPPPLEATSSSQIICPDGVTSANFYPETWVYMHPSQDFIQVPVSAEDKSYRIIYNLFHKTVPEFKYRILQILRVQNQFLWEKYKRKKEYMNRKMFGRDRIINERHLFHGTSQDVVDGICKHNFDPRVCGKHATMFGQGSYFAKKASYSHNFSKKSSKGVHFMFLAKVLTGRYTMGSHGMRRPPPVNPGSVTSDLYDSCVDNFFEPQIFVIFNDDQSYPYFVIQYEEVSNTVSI

| SMILES | pIC50 |
| --- | --- |
| COc1ccc2c(c1)C(C)N(c1cn[nH]c(=O)c1C(F)(F)F)C2 (stereo not drawn) [Example 332, 5-(6-Methoxy-1-methylisoindolin-2-yl)-4-(trifluoromethyl)pyridazin-3(2H)-one] | 6.00 to 7.00 |
| O=C(CCOC[C@H](CO)Nc1cn[nH]c(=O)c1C(F)(F)F)N1CCN(c2ncc(Cl)cn2)CC1 [Example 665, (S)-5-((1-(3-(4-(5-Chloropyrimidin-2-yl)piperazin-1-yl)-3-oxopropoxy)-3-hydroxypropan-2-yl)amino)-4-(trifluoromethyl)pyridazin-3(2H)-one] | > 7.00 |
| N#Cc1ccc(N2CCN(C(=O)CCOCCOCC3CCN(c4cn[nH]c(=O)c4C(F)(F)F)C3)CC2)nc1 (stereo not drawn) [Example 466, 6-(4-(3-(2-((1-(6-Oxo-5-(trifluoromethyl)-1,6-dihydropyridazin-4-yl)pyrrolidin-3-yl)methoxy)ethoxy)propanoyl)piperazin-1-yl)nicotinonitrile] | > 7.00 |
| N#Cc1ccc(N2CCN(C(=O)c3cccc(NCC4c5ccccc5CN4c4cn[nH]c(=O)c4C(F)(F)F)c3)CC2)nc1 (stereo not drawn) [Example 348, 6-(4-(3-(((2-(6-Oxo-5-(trifluoromethyl)-1,6-dihydropyridazin-4-yl)isoindolin-1-yl)methyl)amino)benzoyl)piperazin-1-yl)nicotinonitrile] | > 7.00 |
| NCc1ccc2c(c1)CN(c1cn[nH]c(=O)c1C(F)(F)F)C2 [Example 322, 5-(5-(Aminomethyl)isoindolin-2-yl)-4-(trifluoromethyl)pyridazin-3(2H)-one] | 6.00 to 7.00 |
| COC[C@@H](COCCC(=O)N1CCN(c2ccc(C#N)cn2)CC1)Nc1cn[nH]c(=O)c1C(F)(F)F (single isomer, unassigned) [Example 518B] | > 7.00 |
| O=c1[nH]ncc(N2Cc3cc(F)c(OCCO)cc3C2)c1C(F)(F)F [Example 245, 5-(5-Fluoro-6-(2-hydroxyethoxy)isoindolin-2-yl)-4-(trifluoromethyl)pyridazin-3(2H)-one] | > 7.00 |
| O=C(C[C@H]1CC[C@H]([C@@H]2CCCN2c2cn[nH]c(=O)c2C(F)(F)F)O1)N1CCN(c2ccc(Cl)cn2)CC1 [Example 148C, 5-[(2S)-2-[(2R,5R)-5-[2-[4-(5-chloropyridin-2-yl)piperazin-1-yl]-2-oxoethyl]oxolan-2-yl]pyrrolidin-1-yl]-4-(trifluoromethyl)-2,3-dihydropyridazin-3-one] | > 7.00 |
| N#CCc1ccc(N2CCN(C(=O)c3cccc(OC[C@@H]4CCCN4c4cn[nH]c(=O)c4C(F)(F)F)c3)CC2)cc1 [Example 453, (S)-2-(4-(4-(3-((1-(6-Oxo-5-(trifluoromethyl)-1,6-dihydropyridazin-4-yl)pyrrolidin-2-yl)methoxy)benzoyl)piperazin-1-yl)phenyl)acetonitrile] | > 7.00 |
| C[C@@H](COCCC(=O)N1CCN(c2ncc(Cl)cn2)CC1)Oc1cn[nH]c(=O)c1C(F)(F)F (single isomer, unassigned) [Example 543 Isomer A] | > 7.00 |
| O=C(CCNC[C@H]1c2ccccc2CN1c1cn[nH]c(=O)c1C(F)(F)F)N1CCN(c2ncc(C(F)(F)F)cn2)CC1 [Example 434, (R)-5-(1-(((3-Oxo-3-(4-(5-(trifluoromethyl)pyrimidin-2-yl)piperazin-1-yl)propyl)amino)methyl)isoindolin-2-yl)-4-(trifluoromethyl)pyridazin-3(2H)-one] | ≤ 6.00 |
| Cc1ccc2c(n1)CN(c1cn[nH]c(=O)c1C(F)(F)F)C2 [Example 320, 5-(2-Methyl-5,7-dihydro-6H-pyrrolo[3,4-b]pyridin-6-yl)-4-(trifluoromethyl)pyridazin-3(2H)-one] | > 7.00 |
| N#Cc1ccc(N2CCN(C(=O)C[C@H]3CC[C@H](COc4cn[nH]c(=O)c4C(F)(F)F)O3)CC2)nc1 (single isomer, unassigned) [Example 580 Isomer B] | 6.00 to 7.00 |
| O=c1[nH]ncc(N2Cc3cccc(CNCc4ccncc4)c3C2)c1C(F)(F)F [Example 329, 5-(4-(((Pyridin-4-ylmethyl)amino)methyl)isoindolin-2-yl)-4-(trifluoromethyl)pyridazin-3(2H)-one] | > 7.00 |
| N#Cc1cnc(N2CCN(C(=O)c3cncc(OC[C@@H]4CCCN4c4cn[nH]c(=O)c4C(F)(F)F)c3)CC2)nc1 [Example 65, 2-[4-[(5-[[(2S)-1-[6-oxo-5-(trifluoromethyl)-1,6-dihydropyridazin-4-yl]pyrrolidin-2-yl]methoxy]pyridin-3-yl)carbonyl]piperazin-1-yl]pyrimidine-5-carbonitrile] | > 7.00 |
| O=c1[nH]ncc(N2Cc3cccc(OC4CCN(CC(c5ccccc5)c5ccccc5)CC4)c3C2)c1C(F)(F)F [Example 347, 5-(4-((1-(2,2-Diphenylethyl)piperidin-4-yl)oxy)isoindolin-2-yl)-4-(trifluoromethyl)pyridazin-3(2H)-one] | > 7.00 |
| O=C(CCOC[C@@H](CC1CCNCC1)Nc1cn[nH]c(=O)c1C(F)(F)F)N1CCN(c2ncc(C(F)(F)F)cn2)CC1 [Example 649, (R)-5-((1-(3-Oxo-3-(4-(5-(trifluoromethyl)pyrimidin-2-yl)piperazin-1-yl)propoxy)-3-(piperidin-4-yl)propan-2-yl)amino)-4-(trifluoromethyl)pyridazin-3(2H)-one] | > 7.00 |

| SMILES | pIC50 |
| --- | --- |
| N#Cc1ccc(N2CCN(C(=O)CCNCCOc3cccc4c3CN(c3cn[nH]c(=O)c3C(F)(F)F)C4)CC2)nc1 [Example 492, 6-(4-(3-((2-((2-(6-Oxo-5-(trifluoromethyl)-1,6-dihydropyridazin-4-yl)isoindolin-4-yl)oxy)ethyl)amino)propanoyl)piperazin-1-yl)nicotinonitrile] | > 7.00 |
| CN(C)CCOc1cc(F)c2c(c1)CN(c1cn[nH]c(=O)c1C(F)(F)F)C2 [Example 331, 5-(6-(2-(Dimethylamino)ethoxy)-4-fluoroisoindolin-2-yl)-4-(trifluoromethyl)pyridazin-3(2H)-one] | > 7.00 |
| C[C@@H](COCCC(=O)N1CCC(c2ccc(C#N)cn2)CC1)Oc1cn[nH]c(=O)c1C(F)(F)F [Example 658, (S)-6-(1-(3-(2-((6-Oxo-5-(trifluoromethyl)-1,6-dihydropyridazin-4-yl)oxy)propoxy)propanoyl)piperidin-4-yl)nicotinonitrile] | > 7.00 |
| N#Cc1ccc(N2CCN(C(=O)/C=C/COC[C@H]3c4ccccc4CN3c3cn[nH]c(=O)c3C(F)(F)F)CC2)nc1 [Example 79 Isomer D, 6-[4-[(2E)-4-[[(1R)-2-[6-oxo-5-(trifluoromethyl)-1,6-dihydropyridazin-4-yl]-2,3-dihydro-1H-isoindol-1-yl]methoxy]but-2-enoyl]piperazin-1-yl]pyridine-3-carbonitrile] | > 7.00 |
| N#Cc1ccc(N2CCN(C(=O)C[C@H]3CC[C@H]([C@@H]4c5ccccc5CN4c4cn[nH]c(=O)c4C(F)(F)F)O3)CC2)nc1 (single isomer, unassigned) [Example 612 Isomer C] | ≤ 6.00 |
| O=c1[nH]ncc(N2Cc3cccc(OCCO)c3C2)c1Br [Example 168, 4-Bromo-5-(4-(2-hydroxyethoxy)isoindolin-2-yl)pyridazin-3(2H)-one] | 6.00 to 7.00 |
| C[C@@H](COCCC(=O)N1CCC(Oc2ncc(C(F)(F)F)s2)C1)Nc1cn[nH]c(=O)c1C(F)(F)F (stereo partly drawn) [Example 720, 5-(((2S)-1-(3-Oxo-3-(3-((5-(trifluoromethyl)thiazol-2-yl)oxy)pyrrolidin-1-yl)propoxy)propan-2-yl)amino)-4-(trifluoromethyl)pyridazin-3(2H)-one] | > 7.00 |
| N#Cc1ccc(N2CCN(C(=O)C[C@@H]3CC[C@H](COc4cn[nH]c(=O)c4C(F)(F)F)O3)CC2)nc1 [Example 580 Isomer D, 6-(4-[2-[(2S,5R)-5-([[6-oxo-5-(trifluoromethyl)-1,6-dihydropyridazin-4-yl]oxy]methyl)oxolan-2-yl]acetyl]piperazin-1-yl)pyridine-3-carbonitrile] | > 7.00 |
| C[C@@H](COCCC(=O)N1CCN(c2ccc(F)cn2)CC1)Nc1cn[nH]c(=O)c1C(F)(F)F [Example 684, (S)-5-((1-(3-(4-(5-Fluoropyridin-2-yl)piperazin-1-yl)-3-oxopropoxy)propan-2-yl)amino)-4-(trifluoromethyl)pyridazin-3(2H)-one] | > 7.00 |
| O=c1[nH]ncc(N2C[C@H]3CCCN[C@H]3C2)c1C(F)(F)F [Example 497, 5-((4aR,7aR)-Octahydro-6H-pyrrolo[3,4-b]pyridin-6-yl)-4-(trifluoromethyl)pyridazin-3(2H)-one] | ≤ 6.00 |
| C[C@H](CC(=O)N1CCN(c2ccc(C#N)cn2)CC1)OC[C@H](C)Oc1cn[nH]c(=O)c1C(F)(F)F (single isomer, unassigned) [Example 576 Isomer A] | > 7.00 |
| O=C(CCOC[C@@H]1c2ccccc2CN1c1cn[nH]c(=O)c1C(F)(F)F)N1CCNCC1 [Example 417, (S)-5-(1-((3-Oxo-3-(piperazin-1-yl)propoxy)methyl)isoindolin-2-yl)-4-(trifluoromethyl)pyridazin-3(2H)-one] | 6.00 to 7.00 |
| N#Cc1ccc(N2CCN(C(=O)c3ccc(OCC4c5ccccc5CN4c4cn[nH]c(=O)c4C(F)(F)F)cc3)CC2)nc1 (stereo not drawn) [Example 371, 6-(4-(4-((2-(6-Oxo-5-(trifluoromethyl)-1,6-dihydropyridazin-4-yl)isoindolin-1-yl)methoxy)benzoyl)piperazin-1-yl)nicotinonitrile] | 6.00 to 7.00 |
| O=C(O)c1cccc(OCC2c3ccccc3CN2c2cn[nH]c(=O)c2C(F)(F)F)c1 (stereo not drawn) [Example 342, 3-((2-(6-Oxo-5-(trifluoromethyl)-1,6-dihydropyridazin-4-yl)isoindolin-1-yl)methoxy)benzoic acid] | ≤ 6.00 |
| N#Cc1ccc(N2CCN(C(=O)COCCOCC3CCN(c4cn[nH]c(=O)c4C(F)(F)F)C3)CC2)nc1 (stereo not drawn) [Example 478, 6-(4-(2-(2-((1-(6-Oxo-5-(trifluoromethyl)-1,6-dihydropyridazin-4-yl)pyrrolidin-3-yl)methoxy)ethoxy)acetyl)piperazin-1-yl)nicotinonitrile] | 6.00 to 7.00 |
| N#Cc1ccc(N2CCN(C(=O)C[C@H]3CC[C@@H]([C@@H]4c5ccccc5CN4c4cn[nH]c(=O)c4C(F)(F)F)O3)CC2)nc1 (single isomer, unassigned) [Example 612 Isomer B] | > 7.00 |
